Values quoted from earlier work in patent US6809181B2, “Human beta-defensin-3 (HBD-3), a highly cationic beta-defensin antimicrobial peptide” (University of Iowa Research Foundation, priority 2000, dated 2004).
In brackets after ≈: the same amount, converted by molar mass. Like-named read-outs stand apart in the source and are kept apart here.

Legend:
[1] = test system: Haemophilus influenzae (penicillin susceptible); conditions: n=22, r64, cited from earlier work
[2] = test system: Neisseria gonorrhoeae (non β-lactamase producer); conditions: cited from earlier work
[3] = test system: Bordetella bronchiseptica; conditions: n=11, r8, cited from earlier work
[4] = test system: Branhamella (Moraxella) catarrhalis (non β-lactamase producer); conditions: cited from earlier work
Campylobacter jejuni = conditions: cited from earlier work; for MIC50 / MIC90: unit assumed
[5] = test system: Staphylococcus aureus (penicillin susceptible); conditions: cited from earlier work; for MIC50 / MIC90: unit assumed
[6] = test system: Neisseria gonorrhoeae (β-lactamase producer); conditions: cited from earlier work
Nocardia asteroides = conditions: n=78, r91, cited from earlier work
[7] = test system: Staphylococcus epidermidis; conditions: n=50; r120; unit assumed; cited from earlier work
[8] = test system: Staphylococcus haemolyticus; conditions: n=20; r121; unit assumed; cited from earlier work
[9] = test system: Staphylococcus aureus (penicillin resistant); conditions: n=35, r98, cited from earlier work
Enterococcus faecalis = conditions: cited from earlier work
[10] = test system: Haemophilus influenzae (β-lactamase producer); conditions: cited from earlier work
Bacteroides fragilis = conditions: n=97, r7, cited from earlier work
Haemophilus ducreyi = conditions: n=122; r53; unit assumed; cited from earlier work

CC[C@H]1OC(=O)[C@H](C)[C@@H](O[C@H]2C[C@@](C)(OC)[C@@H](O)[C@H](C)O2)[C@H](C)[C@@H](O[C@@H]2O[C@H](C)C[C@H](N(C)C)[C@H]2O)[C@](C)(O)C[C@@H](C)C(=O)[C@H](C)[C@@H](O)[C@]1(C)O [ERYTHROMYCIN, erythromycin]
Range [1]: 0.25-16
MIC50 ([1]; unit assumed): 8 µg/mL (≈ 10.9 µM)
MIC90 ([1]; unit assumed): 16 µg/mL (≈ 21.8 µM)
Range ([2]; n=73, r82): 0.015-4
Range ([2]; n=78, r84): 0.03-2
Range [3]: 4-32
MIC50 ([3]; unit assumed): 8 µg/mL (≈ 10.9 µM)
MIC90 ([3]; unit assumed): 32 µg/mL (≈ 43.6 µM)
Range ([4]; n=14, r23): 0.06-1
Range ([4]; n=16, r26): 0.015-1
Range ([4]; n=40, r17): 0.06-0.5
MIC50 (Campylobacter jejuni; n=16, r42): 0.25 µg/mL (≈ 0.341 µM)
MIC90 (Campylobacter jejuni; n=16, r42): 2 µg/mL (≈ 2.73 µM)
Range (Campylobacter jejuni; n=25, r41): 0.5-8
MIC50 (Campylobacter jejuni; n=25, r41): 1 µg/mL (≈ 1.36 µM)
MIC90 (Campylobacter jejuni; n=25, r41): 4 µg/mL (≈ 5.45 µM)
MIC50 ([5]; n=20, r94): 0.5 µg/mL (≈ 0.681 µM)
MIC90 ([5]; n=20, r94): 0.5 µg/mL (≈ 0.681 µM)
Range ([5]; n=35, r96): 0.06-32
MIC50 ([5]; n=35, r96): 0.25 µg/mL (≈ 0.341 µM)
MIC90 ([5]; n=35, r96): 0.5 µg/mL (≈ 0.681 µM)
Range ([6]; n=12, r86): 0.03-4
Range ([6]; n=17, r88): 1-4
Range (Nocardia asteroides): 0.25-8
MIC50 (Nocardia asteroides; unit assumed): 8 µg/mL (≈ 10.9 µM)
MIC90 (Nocardia asteroides; unit assumed): 8 µg/mL (≈ 10.9 µM)
MIC50 [7]: 64 µg/mL (≈ 87.2 µM)
MIC50 [8]: 64 µg/mL (≈ 87.2 µM)
Range [9]: 0.25-32
MIC50 ([9]; unit assumed): 0.25 µg/mL (≈ 0.341 µM)
MIC90 ([9]; unit assumed): 32 µg/mL (≈ 43.6 µM)
Range (Enterococcus faecalis; n=26, r47): 1-64
MIC50 (Enterococcus faecalis; n=26, r47, unit assumed): 1 µg/mL (≈ 1.36 µM)
MIC90 (Enterococcus faecalis; n=26, r47, unit assumed): 4 µg/mL (≈ 5.45 µM)
Range (Enterococcus faecalis; n=50, r48): 0.06-64
MIC50 (Enterococcus faecalis; n=50, r48, unit assumed): 4 µg/mL (≈ 5.45 µM)
MIC50 (Enterococcus faecalis; n=86, r49, unit assumed): 1 µg/mL (≈ 1.36 µM)
MIC50 (Enterococcus faecalis; n=97, r50, unit assumed): 2 µg/mL (≈ 2.73 µM)
Range ([10]; n=17, r62): 0.25-4
Range ([10]; n=46, r60): 0.06-8
Range (Bacteroides fragilis): 0.25-16
MIC50 (Bacteroides fragilis; unit assumed): 1 µg/mL (≈ 1.36 µM)
MIC90 (Bacteroides fragilis; unit assumed): 8 µg/mL (≈ 10.9 µM)
MIC50 (Haemophilus ducreyi): 0.004 µg/mL (≈ 0.00545 µM)
MIC90 (Haemophilus ducreyi): 0.06 µg/mL (≈ 0.0818 µM)
